Laboratory results: publication PMC6560211, “ApoAI-derived peptide increases glucose tolerance and prevents formation of atherosclerosis in mice” (Diabetologia, 2019)

Legend:
[1] = rHDL formation, particle size by DLS; settings: 1:100 protein:lipid molar ratio, extruded 100 nm MLVs, 4 days (96 h), 24°C
Experimental: 1,2-dimyristoyl-sn-glycero-3-phosphocholine (DMPC; Avanti Polar Lipids, Alabaster, AL, USA) was formed into 100 nm multilamellar vesicles (MLV) via extrusion using the LiposoFast system (Avestin, Ottawa, ON, Canada) as previously described. MLV were incubated with RG54 or ApoA-I at the indicated ratios for 4 days at 24°C to form rHDL. The resulting particle sizes were measured by dynamic light scattering (DLS) using a Zetasizer APS (Malvern Instruments, Uppsala, Sweden).
The reduced initial rate may be due to a more complex binding pattern of the larger number of RG54 peptides needed per formed particle: four to five RG54 molecules (54 amino acids each) are needed to make up the size of full-length ApoA-I (243 amino acids). A qualitative assessment of particle formation was therefore next used to evaluate and compare the sizes of formed rHDL. The hydrodynamic diameters of lipid–protein complexes formed after extended incubation (96 h) of RG54 or ApoA-I with extruded 100 nm MLVs were estimated using DLS.
ESM Figure 4. Lipid clearance and peptide-lipid complex formation activity of RG54 compared with full-length ApoA-I. […]

DIO C57BL/6NTac mice = assay: GTT in diet-induced obesity (DIO) mice; type: in vivo, mouse; settings: for fasting glucose levels / fasting insulin levels / insulin sensitivity as measured by QUICKI: DIO mice, 3 h treatment, i.p.
Experimental: (§1) Male C57BL/6NTac mice (Taconic, Ejby, Denmark) at 8–9 weeks of age were acclimatised for 1 week on a normal chow diet, then changed to a high-fat diet for 2 weeks (diet-induced obesity; DIO), followed by GTT as indicated. Male Lepr^db (db/db) mice on a BKS background (Taconic) at 5 weeks of age were maintained on a normal chow diet and GTTs were performed at 5.5 and 14 weeks of age as indicated. Blood glucose levels were measured in fresh blood (C57: OneTouch Ultra2, Lifescan, Milpitas, CA, USA; db/db: GlucoSmart Swing, MSP bodmann, Bobingen, Germany) and insulin levels were assayed in serum using ELISA (Mercodia) at the times indicated in ESM Fig. 2. See ESM Methods for more details.
The effect of RG54 peptide on glucose disposal was investigated in an established insulin-resistant mouse model. DIO mice were fasted for 9 h followed by a single i.p. dose of RG54 (12 mg/kg), ApoA-I (14 mg/kg), liraglutide (0.1 mg/kg), or an equal volume of NaCl solution. After a further 3 h fasting period, GTTs were performed (Fig. 4a,b).
(§2) Fig. 4 Acute treatment with RG54 improves glucose tolerance during GTTs in three models of type 2 diabetes. Male C57Bl/6 mice fed a high-fat diet for 2 weeks (a–d) or db/db mice at 5.5 (e–h) or 14 (i–l) weeks old were fasted overnight, then treated with a single i.p. injection of NaCl (negative control, 200 μl; C57, n=12; db/db 5.5 weeks, n=6; db/db 14 weeks, n=6), liraglutide (0.1 mg/kg; C57, n=11; db/db 5.5 weeks, n=6; db/db 14 weeks, n=6), ApoA-I (14 mg/kg; C57, n=12; db/db 5.5 weeks, n=6; db/db 14 weeks, n=6) or RG54 (12 mg/kg; C57, n=12; db/db 5.5 weeks, n=6; db/db 14 weeks, n=5). After a further 3 h, mice received an i.p. glucose load (40 mg/mouse for C57; 50 mg/mouse for db/db) followed by blood and plasma collection at the indicated times, and blood glucose (a,e,i) and plasma insulin (b,f,j) concentrations were determined. Total AUC was calculated (mmol/l × min for glucose, pmol/l × min for insulin) and then normalised to the average value of the relevant NaCl control group to give relative AUC (% control) for glucose (c,g,k) and insulin (d,h,l). Values are means ± SEM. *p≤0.05, **p≤0.01, ***p≤0.001 vs NaCl control […]
We directly compared the i.p. and s.c. injection routes in DIO mice. DIO mice were fasted for 9 h, followed by a single i.p. or s.c. injection of RG54 (12 mg/kg), ApoA-I (14 mg/kg), or an equal volume of NaCl solution. After a further 3 h fasting and incubation period, GTTs were performed. […] Finally, we assessed the dose response of s.c. RG54 to find treatment concentrations with full or partial effects on glycaemic control as compared with our positive control (Fig. 6).
Male C57Bl/6 mice fed a high-fat diet for 2 weeks were fasted overnight, then treated with a single i.p. or s.c. injection of NaCl (negative control, 200 μl, n=6), ApoA-I (14 mg/kg, n=6) or RG54 (12 mg/kg, n=6). After a further 3 h, all mice received an i.p. glucose load (40 mg/mouse) followed by blood and plasma collection at the indicated times, and blood glucose (a,b) and plasma insulin (d,e) concentrations were determined for all injection routes. Total AUC was calculated (mmol/l × min for glucose, pmol/l × min for insulin) and then normalised to the average value of the relevant NaCl control group to give relative AUC (% control) for glucose (c) and insulin (f). Values are means ± SEM. ***p≤0.001 vs NaCl control […]
Male C57BL/6NTac mice were purchased from Taconic (Ejby, Denmark) at 8-9 weeks of age, acclimatised for one week on normal chow diet, then changed to a High-Fat Diet (HFD; Research Diets D12492, 60% fat content) for 2 weeks, followed by glucose tolerance testing (GTT) with timings as indicated (ESM Figure 2). Male Leprdb mice (db/db) on BKS background purchased from Taconic (BKS.Cg-m+/+Leprdb/BomTac, Ejby, Denmark) at 5 weeks of age were maintained on normal chow diet and GTTs were performed at 5.5 and 14 weeks of age with timings as indicated (ESM Figure 2). For the GTTs, mice fasted overnight […]

Lepr db (db/db) mice = assay: GTT in db/db mice; type: in vivo, mouse; settings: db/db 5.5 weeks
Experimental: as §1, §2
We next used type 2 diabetes models with a more advanced phenotype: db/db mice at 5.5 and 14 weeks of age.
At 14 weeks of age, mice were markedly obese with a mean ± SEM body weight of 55.3 ± 0.6 g. […] One mouse was excluded from RG54 treatment group because of very high residual insulin secretion prior to the experiment.
Male C57BL/6NTac mice were purchased from Taconic (Ejby, Denmark) at 8-9 weeks of age, acclimatised for one week on normal chow diet, then changed to a High-Fat Diet (HFD; Research Diets D12492, 60% fat content) for 2 weeks, followed by glucose tolerance testing (GTT) with timings as indicated (ESM Figure 2). Male Leprdb mice (db/db) on BKS background purchased from Taconic (BKS.Cg-m+/+Leprdb/BomTac, Ejby, Denmark) at 5 weeks of age were maintained on normal chow diet and GTTs were performed at 5.5 and 14 weeks of age with timings as indicated (ESM Figure 2). For the GTTs, mice fasted overnight (9 h) were injected with the appropriate treatment, and after an additional 3 h given ip glucose (C57: 40 mg/mouse; db/db: 50 mg/mouse) followed by collection of serum samples at the indicated times. Blood glucose levels were measured in fresh blood (C57: OnetouchUltra2, Lifescan; db/db: GlucoSmart Swing, MSP bodmann) and insulin levels were assayed in serum using ELISA (Mercodia). db/db mice were independently randomized to treatments groups for GTT at each time point as no carry over was expected between experiments due to the acute nature of the treatment effects. Primary outcomes were blood glucose and insulin measurements during the GTT. C57BL/6NTac mice were euthanized immediately after each experiment whereas db/db were euthanized immediately after the GTT at 14 weeks of age. […]
and reproducible clinical symptoms of diabetes than females in these models [5; 6] thus ensuring the reproducibility of clinical symptoms between animals within the study. […]

Molecule | lipid-protein complexes formed (DLS frequency plots) [1] | fasting glucose levels (DIO C57BL/6NTac mice) | fasting insulin levels (DIO C57BL/6NTac mice) | insulin sensitivity as measured by QUICKI (DIO C57BL/6NTac mice) | insulin secretion in GTT (DIO C57BL/6NTac mice; route comparison, i.p. injection, RG54 12 mg/kg, ApoA-I 14 mg/kg, n=6) | fasting glucose levels (Lepr db (db/db) mice; 3 h treatment, i.p.) | fasting insulin secretion (Lepr db (db/db) mice; 3 h treatment, i.p.) | insulin sensitivity as measured by QUICKI (Lepr db (db/db) mice; 3 h treatment, i.p.) | insulin secretion at the 15-min time point (Lepr db (db/db) mice; liraglutide 0.1 mg/kg i.p.) | overall insulin AUC (Lepr db (db/db) mice; liraglutide 0.1 mg/kg i.p.)
ApoA-I: Recombinant human ApoA-I, full-length (243 amino acids), used as control | single peaks corresponding to rHDL particles | significantly lowered | no concomitant increase | no change | increased insulin secretion | significantly lowered | no significant changes | no concomitant change | – | –
CCCCCCCCCCCCCCCC(=O)N[C@@H](CCC(=O)NCCCC[C@H](NC(=O)[C@H](C)NC(=O)[C@H](C)NC(=O)[C@H](CCC(N)=O)NC(=O)CNC(=O)[C@H](CCC(=O)O)NC(=O)[C@H](CC(C)C)NC(=O)[C@H](Cc1ccc(O)cc1)NC(=O)[C@H](CO)NC(=O)[C@H](CO)NC(=O)[C@@H](NC(=O)[C@H](CC(=O)O)NC(=O)[C@H](CO)NC(=O)[C@@H](NC(=O)[C@H](Cc1ccccc1)NC(=O)[C@@H](NC(=O)CNC(=O)[C@H](CCC(=O)O)NC(=O)[C@H](C)NC(=O)[C@@H](N)Cc1c[nH]cn1)[C@@H](C)O)[C@@H](C)O)C(C)C)C(=O)N[C@@H](CCC(=O)O)C(=O)N[C@@H](Cc1ccccc1)C(=O)N[C@H](C(=O)N[C@@H](C)C(=O)N[C@@H](Cc1c[nH]c2ccccc12)C(=O)N[C@@H](CC(C)C)C(=O)N[C@H](C(=O)N[C@@H](CCCNC(=N)N)C(=O)NCC(=O)N[C@@H](CCCNC(=N)N)C(=O)NCC(=O)O)C(C)C)[C@@H](C)CC)C(=O)O [liraglutide, reference compound] | – | significantly lowered | no concomitant increase | no change | – | – | – | – | modest, transient increase | not increased
